Results: publication PMC11501026, “L-Arginine and asymmetric dimethylarginine (ADMA) transport across the mouse blood-brain and blood-CSF barriers: Evidence of saturable transport at both interfaces and CNS to blood efflux” (PLOS ONE, 2024)
Where a name gives a salt, the structure may show the parent alone. Read-outs that look alike come from different tables or passages of the source.

Columns and labels:
Format in all cases: in vivo, mouse
[1] = test system: [3H]-ADMA transport across the blood-brain and blood-CSF barriers; assay: self-inhibition, in situ perfusion: [^3H]-ADMA with 100 μM unlabelled ADMA; conditions: male, Balb/c, mouse, other: in situ brain perfusion, with unlabelled ADMA 100 µM, 10 mins, Balb/c ♂, 5ml/min
Experimental: (§1) Self-inhibition experiments were also performed. […] Cross-competition experiments were also performed.
(§2) The percentage change in the RTissue uptake values achieved in the absence or presence of an unlabelled inhibitor can be calculated by means of Eq 4.
(§3) %change=RTissue−RInhibition/RTissue×100 Eq 4
(§4) We define RInhibition as the RTissue uptake in the presence of an inhibitor in the artificial plasma.
(§5) A decrease in the uptake of radiolabelled solute in the presence of unlabelled inhibitor is indicative of a saturable influx transport system. Conversely, an increase in the uptake of radiolabelled solute in the presence of unlabelled inhibitor is indicative of a saturable efflux transport system.

[2] = cross-inhibition, in situ perfusion: [^3H]-ADMA with 100 μM unlabelled L-arginine; conditions: male, Balb/c, mouse, other: in situ brain perfusion, with 100 µM unlabelled L-arginine, 10 mins, Balb/c ♂, 5ml/min
Experimental: as §1, §2, §3, §4, §5

[3] = test system: [3H]-ADMA transport across the blood-brain and blood-CSF barriers; assay: as above; conditions: male, Balb/c, mouse, other: in situ brain perfusion, with 100 µM unlabelled L-arginine, 10 mins, Balb/c ♂, 5ml/min
Experimental: as §1, §2, §3, §4, §5

Kp at 10 min, 62.5 nM ([1]; CSF, Difference (ADMA minus Sucrose), CSF, + 100uM un-labelled ADMA, mean): 2.01 | Kp at 10 min, 62.5 nM ([1]; CSF, [3H] ADMA + [14C] Sucrose + 100uM un-labelled ADMA, mean, read-out: uptake into CSF): 2.15 | Kp at 10 min, 62.5 nM ([1]; cerebellum, Difference (ADMA minus Sucrose), cerebellum, + 100uM un-labelled ADMA, individual mice): 0.0515 | Kp at 10 min, 62.5 nM ([1]; cerebellum, Difference (ADMA minus Sucrose), cerebellum, + 100uM un-labelled ADMA, mean): 0.0701 | Kp at 10 min, 62.5 nM ([1]; cerebellum, [3H] ADMA + [14C] Sucrose + 100uM un-labelled ADMA, individual mice, read-out: uptake into cerebellum): 0.09 | Kp at 10 min, 62.5 nM ([1]; cerebellum, [3H] ADMA + [14C] Sucrose + 100uM un-labelled ADMA, mean, read-out: uptake into cerebellum): 0.121 | Kp at 10 min, 62.5 nM ([1]; homogenate, Difference (ADMA minus Sucrose), homogenate, + 100uM un-labelled ADMA, mean): 0.0396 | Kp at 10 min, 62.5 nM ([1]; homogenate, [3H] ADMA + [14C] Sucrose + 100uM un-labelled ADMA, individual mice, read-out: uptake, homogenate): 0.0686 | Kp at 10 min, 62.5 nM ([1]; homogenate, [3H] ADMA + [14C] Sucrose + 100uM un-labelled ADMA, mean, read-out: uptake, homogenate): 0.0884 | Kp at 10 min, 62.5 nM ([1]; hypothalamus, Difference (ADMA minus Sucrose), hypothalamus, + 100uM un-labelled ADMA, mean): 0.0972 | Kp at 10 min, 62.5 nM ([1]; hypothalamus, [3H] ADMA + [14C] Sucrose + 100uM un-labelled ADMA, mean, read-out: uptake into hypothalamus): 0.146 | Kp at 10 min, 62.5 nM ([1]; pellet, Difference (ADMA minus Sucrose), pellet, + 100uM un-labelled ADMA, individual mice): 0.01 | Kp at 10 min, 62.5 nM ([1]; pellet, [3H] ADMA + [14C] Sucrose + 100uM un-labelled ADMA, individual mice, read-out: uptake, pellet): 0.0144 | Kp at 10 min, 62.5 nM ([1]; pellet, [3H] ADMA + [14C] Sucrose + 100uM un-labelled ADMA, mean, read-out: uptake, pellet): 0.0179 | Kp at 10 min, 62.5 nM ([1]; pituitary gland, Difference (ADMA minus Sucrose), pituitary gland, + 100uM un-labelled ADMA, mean): 0.586 | Kp at 10 min, 62.5 nM ([1]; pituitary gland, [3H] ADMA + [14C] Sucrose + 100uM un-labelled ADMA, mean, read-out: uptake into pituitary gland): 0.681 | Kp at 10 min, 62.5 nM ([1]; pons, Difference (ADMA minus Sucrose), pons, + 100uM un-labelled ADMA, mean): 0.0724 | Kp at 10 min, 62.5 nM ([1]; pons, [3H] ADMA + [14C] Sucrose + 100uM un-labelled ADMA, individual mice, read-out: uptake into pons): 0.102 | Kp at 10 min, 62.5 nM ([1]; pons, [3H] ADMA + [14C] Sucrose + 100uM un-labelled ADMA, mean, read-out: uptake into pons): 0.127 | Kp at 10 min, 62.5 nM ([1]; supernatant, Difference (ADMA minus Sucrose), supernatant, + 100uM un-labelled ADMA, mean): 0.0316 | Kp at 10 min, 62.5 nM ([1]; supernatant, [3H] ADMA + [14C] Sucrose + 100uM un-labelled ADMA, individual mice, read-out: uptake, supernatant): 0.047 | Kp at 10 min, 62.5 nM ([1]; supernatant, [3H] ADMA + [14C] Sucrose + 100uM un-labelled ADMA, mean, read-out: uptake, supernatant): 0.0703 | Kp at 10 min, 62.5 nM ([1]; thalamus, Difference (ADMA minus Sucrose), thalamus, + 100uM un-labelled ADMA, mean): 0.0727 | Kp at 10 min, 62.5 nM ([1]; thalamus, [3H] ADMA + [14C] Sucrose + 100uM un-labelled ADMA, individual mice, read-out: uptake into thalamus): 0.077 | Kp at 10 min, 62.5 nM ([1]; thalamus, [3H] ADMA + [14C] Sucrose + 100uM un-labelled ADMA, mean, read-out: uptake into thalamus): 0.117 | Kp at 10 min, 62.5 nM ([2]; CSF, [3H] ADMA + [14C] Sucrose + 100uM Arg, mean, read-out: uptake into CSF): 0.162 | Kp at 10 min, 62.5 nM ([2]; brain homogenate, Difference (ADMA minus Sucrose), homogenate, + 100uM Arg, mean): 0.0265 | Kp at 10 min, 62.5 nM ([2]; brain homogenate, [3H] ADMA + [14C] Sucrose + 100uM Arg, mean, read-out: uptake, homogenate): 0.063 | Kp at 10 min, 62.5 nM ([2]; pellet, Difference (ADMA minus Sucrose), pellet, + 100uM Arg, individual mice): 0.00309 | Kp at 10 min, 62.5 nM ([2]; pellet, [3H] ADMA + [14C] Sucrose + 100uM Arg, mean, read-out: uptake, pellet): 0.011 | Kp at 10 min, 62.5 nM ([2]; supernatant, Difference (ADMA minus Sucrose), supernatant, + 100uM Arg, mean): 0.0204 | Kp at 10 min, 62.5 nM ([2]; supernatant, [3H] ADMA + [14C] Sucrose + 100uM Arg, mean, read-out: uptake, supernatant): 0.0475 | Kp at 10 min, 62.5 nM ([3]; caudate nucleus, Difference (ADMA minus Sucrose), caudate nucleus, + 100uM Arg, mean): 0.0481 | Kp at 10 min, 62.5 nM ([3]; caudate nucleus, [3H] ADMA + [14C] Sucrose + 100uM Arg, individual mice, read-out: uptake into caudate nucleus): 0.0565 | Kp at 10 min, 62.5 nM ([3]; caudate nucleus, [3H] ADMA + [14C] Sucrose + 100uM Arg, mean, read-out: uptake into caudate nucleus): 0.0664 | Kp at 10 min, 62.5 nM ([3]; cerebellum, Difference (ADMA minus Sucrose), cerebellum, + 100uM Arg, mean): 0.0445 | Kp at 10 min, 62.5 nM ([3]; cerebellum, [3H] ADMA + [14C] Sucrose + 100uM Arg, mean, read-out: uptake into cerebellum): 0.0673 | Kp at 10 min, 62.5 nM ([3]; choroid plexus, Difference (ADMA minus Sucrose), choroid plexus, + 100uM Arg, individual mice): 0.469 | Kp at 10 min, 62.5 nM ([3]; choroid plexus, Difference (ADMA minus Sucrose), choroid plexus, + 100uM Arg, mean): 0.471 | Kp at 10 min, 62.5 nM ([3]; choroid plexus, [3H] ADMA + [14C] Sucrose + 100uM Arg, individual mice, read-out: uptake into choroid plexus): 0.609 | Kp at 10 min, 62.5 nM ([3]; choroid plexus, [3H] ADMA + [14C] Sucrose + 100uM Arg, mean, read-out: uptake into choroid plexus): 0.616 | Kp at 10 min, 62.5 nM ([3]; frontal cortex, Difference (ADMA minus Sucrose), frontal cortex, + 100uM Arg, mean): 0.0598 | Kp at 10 min, 62.5 nM ([3]; frontal cortex, [3H] ADMA + [14C] Sucrose + 100uM Arg, mean, read-out: uptake into frontal cortex): 0.0858 | Kp at 10 min, 62.5 nM ([3]; hippocampus, Difference (ADMA minus Sucrose), hippocampus, + 100uM Arg, mean): 0.0475 | Kp at 10 min, 62.5 nM ([3]; hippocampus, [3H] ADMA + [14C] Sucrose + 100uM Arg, mean, read-out: uptake into hippocampus): 0.0608
Compound: CN(C)C(N)=NCCC[C@H](N)C(=O)O [ADMA, N^G,N^G-dimethylarginine dihydrochloride]
